Reference: patent US11927585B2, “Solvent-based inks and coatings for food contact applications” (SUN CHEMICAL CORPORATION, priority 2020, dated 2024)
Where a name gives a salt, the structure may show the parent alone. Read-outs that look alike come from different tables or passages of the source.

What was measured:
[1] = cited from earlier work
[2] = Worst-case calculation (100% migration), standard EU Cube exposure model; conditions: for Worst Case Calculation of migration in EU Cube model: Basis for Safety outcome: volatile substance; for Worst Case Calculation of migration in EU Cube model (as a percentage of SML) / Worst-case calculation as a percentage of SML (or restriction), EU Cube: 100% migration; for Worst Case Calculation of migration in EU Cube model (as a percentage of SML): dry coat weight 2.0 g/m^2; for Worst-case calculation as a percentage of SML (or restriction), EU Cube: 2.0 g/m^2 dry film
[3] = Worst-case calculation, Application 1 yoghurt pot lid exposure scenario; conditions: 100% migration, 2.0 g/m^2 dry film
[4] = Worst-case calculation, Application 2 cheese packaging wrap exposure scenario; conditions: 100% migration, 2.0 g/m^2 dry film
[5] = Specific migration limit (SML) from regulation or hazard assessment (TTC, VEGA QSAR, Cramer Class); conditions: source HA (internal hazard assessment), self-derived SML; EU Cube model
[6] = source PR (EU Plastics Regulation No. 10/2011) or SO (Swiss Ordinance), EU Cube model
[7] = substance in ink SBDEV976 (Ex. 4C Cyan)
[8] = substance in ink SBDEV977 (Ex. 4A Yellow)
[9] = substance in ink SBDEV979 (Ex. 4D Black)
[10] = substance in ink SBDEV980 (Ex. 4B Red)
[11] = Source of SML or restriction: SO (Swiss Ordinance)
[12] = source of SML or restriction: SO (Swiss Ordinance)

## CCO [0000064-17-5, ethanol]
[1]; [6]
  SML or Restriction (mg substance/kg food): 60 mg substance/kg food
[2]; [7]
  Worst Case Calculation of migration in EU Cube model: Basis for Safety outcome: Converter
[2]; [8]
  Worst Case Calculation of migration in EU Cube model: Basis for Safety outcome: Converter
[2]; [9]
  Worst Case Calculation of migration in EU Cube model: Basis for Safety outcome: Converter
[2]; [10]
  Worst Case Calculation of migration in EU Cube model: Basis for Safety outcome: Converter

## CCCOC(C)=O [0000109-60-4, Acetic acid, propyl ester]
[1]; [6]
  SML or Restriction (mg substance/kg food): 60 mg substance/kg food
[2]; [7]
  Worst Case Calculation of migration in EU Cube model: Basis for Safety outcome: Converter
[2]; [8]
  Worst Case Calculation of migration in EU Cube model: Basis for Safety outcome: Converter
[2]; [9]
  Worst Case Calculation of migration in EU Cube model: Basis for Safety outcome: Converter
[2]; [10]
  Worst Case Calculation of migration in EU Cube model: Basis for Safety outcome: Converter

## CCCOC(C)=O [Acetic acid, propyl ester]
[1]; [11]
  SML (or restriction): 60 mg substance/kg food
[1]; [12]
  SML (or restriction): 60 mg substance/kg food

## O=C(O)c1c(-c2ccc(-c3ccccc3)cc2)[nH]c2nc(-c3ccc(-c4ccccc4)cc3)nc(-c3ccc(-c4ccccc4)cc3)c12 [2,4,6-Tris-Biphenyl-4-Yl-7H-Pyrrolo[2,3-D]Pyrimidine-5-Carboxylic Acid]
[1]; Source of SML or restriction: Default 10 ppb
  SML (or restriction): 0.01 mg substance/kg food
[1]; source Default 10 ppb
  SML or Restriction (mg substance/kg food): 0.01 mg substance/kg food
[2]; [10]
  Worst Case Calculation of migration in EU Cube model (as a percentage of SML): 380 percentage of SML

## CCCCOC(=O)CC(O)(CC(=O)OCCCC)C(=O)OCCCC [Tributyl citrate]
[1]; [11]
  SML (or restriction): 0.05 mg substance/kg food
[1]; [12]
  SML (or restriction): 0.05 mg substance/kg food

## CCCCOC(=O)CC(O)(CC(=O)OCCCC)C(=O)OCCCC [0000077-94-1, Tributyl citrate]
[1]; [6]
  SML or Restriction (mg substance/kg food): 0.05 mg substance/kg food
[3]; product SBDEV976
  Worst-case calculation as a percentage of SML (or restriction), Application 1: 21.7 percentage of SML (or restriction)
[3]; product SBDEV977
  Worst-case calculation as a percentage of SML (or restriction), Application 1: 20.9 percentage of SML (or restriction)
[3]; product SBDEV979
  Worst-case calculation as a percentage of SML (or restriction), Application 1: 20.8 percentage of SML (or restriction)
[3]; product SBDEV980
  Worst-case calculation as a percentage of SML (or restriction), Application 1: 21.0 percentage of SML (or restriction)
[3]; product SBDEV1284
  Worst-case calculation as a percentage of SML (or restriction), Application 1: 20.73 percentage of SML (or restriction)
[3]; product SBDEV1285
  Worst-case calculation as a percentage of SML (or restriction), Application 1: 20.73 percentage of SML (or restriction)
[3]; product SBDEV1286
  Worst-case calculation as a percentage of SML (or restriction), Application 1: 20.73 percentage of SML (or restriction)
[3]; product SBDEV1287
  Worst-case calculation as a percentage of SML (or restriction), Application 1: 20.73 percentage of SML (or restriction)
[2]; product SBDEV976
  Worst-case calculation as a percentage of SML (or restriction), EU Cube: 55.2 percentage of SML (or restriction)
[2]; product SBDEV977
  Worst-case calculation as a percentage of SML (or restriction), EU Cube: 53.2 percentage of SML (or restriction)
[2]; product SBDEV979
  Worst-case calculation as a percentage of SML (or restriction), EU Cube: 52.8 percentage of SML (or restriction)
[2]; product SBDEV980
  Worst-case calculation as a percentage of SML (or restriction), EU Cube: 53.4 percentage of SML (or restriction)
[2]; product SBDEV1284
  Worst-case calculation as a percentage of SML (or restriction), EU Cube: 52.8 percentage of SML (or restriction)
[2]; product SBDEV1285
  Worst-case calculation as a percentage of SML (or restriction), EU Cube: 52.8 percentage of SML (or restriction)
[2]; product SBDEV1286
  Worst-case calculation as a percentage of SML (or restriction), EU Cube: 52.8 percentage of SML (or restriction)
[2]; product SBDEV1287
  Worst-case calculation as a percentage of SML (or restriction), EU Cube: 52.8 percentage of SML (or restriction)
[2]; [7]
  Worst Case Calculation of migration in EU Cube model (as a percentage of SML): 55.2 percentage of SML
[2]; [8]
  Worst Case Calculation of migration in EU Cube model (as a percentage of SML): 53.2 percentage of SML
[2]; [9]
  Worst Case Calculation of migration in EU Cube model (as a percentage of SML): 52.8 percentage of SML
[2]; [10]
  Worst Case Calculation of migration in EU Cube model (as a percentage of SML): 53.4 percentage of SML
[4]; product SBDEV976
  Worst-case calculation as a percentage of SML (or restriction), Application 2: 79.6 percentage of SML (or restriction)
[4]; product SBDEV977
  Worst-case calculation as a percentage of SML (or restriction), Application 2: 76.7 percentage of SML (or restriction)
[4]; product SBDEV979
  Worst-case calculation as a percentage of SML (or restriction), Application 2: 76.0 percentage of SML (or restriction)
[4]; product SBDEV980
  Worst-case calculation as a percentage of SML (or restriction), Application 2: 76.9 percentage of SML (or restriction)
[4]; product SBDEV1284
  Worst-case calculation as a percentage of SML (or restriction), Application 2: 76.01 percentage of SML (or restriction)
[4]; product SBDEV1285
  Worst-case calculation as a percentage of SML (or restriction), Application 2: 76.01 percentage of SML (or restriction)
[4]; product SBDEV1286
  Worst-case calculation as a percentage of SML (or restriction), Application 2: 76.01 percentage of SML (or restriction)
[4]; product SBDEV1287
  Worst-case calculation as a percentage of SML (or restriction), Application 2: 76.01 percentage of SML (or restriction)

## CCCCCCCC/C=C\CCCCCCCC(=O)OCC [0000111-62-6, Ethyl Oleate]
[3]; product SBDEV976
  Worst-case calculation as a percentage of SML (or restriction), Application 1: 9.42 percentage of SML (or restriction)
[3]; product SBDEV977
  Worst-case calculation as a percentage of SML (or restriction), Application 1: 9.42 percentage of SML (or restriction)
[3]; product SBDEV979
  Worst-case calculation as a percentage of SML (or restriction), Application 1: 8.92 percentage of SML (or restriction)
[3]; product SBDEV980
  Worst-case calculation as a percentage of SML (or restriction), Application 1: 9.45 percentage of SML (or restriction)
[3]; product SBDEV1284
  Worst-case calculation as a percentage of SML (or restriction), Application 1: 8.91 percentage of SML (or restriction)
[3]; product SBDEV1285
  Worst-case calculation as a percentage of SML (or restriction), Application 1: 8.91 percentage of SML (or restriction)
[3]; product SBDEV1286
  Worst-case calculation as a percentage of SML (or restriction), Application 1: 8.91 percentage of SML (or restriction)
[3]; product SBDEV1287
  Worst-case calculation as a percentage of SML (or restriction), Application 1: 8.91 percentage of SML (or restriction)
[2]; product SBDEV976
  Worst-case calculation as a percentage of SML (or restriction), EU Cube: 24.0 percentage of SML (or restriction)
[2]; product SBDEV977
  Worst-case calculation as a percentage of SML (or restriction), EU Cube: 24.0 percentage of SML (or restriction)
[2]; product SBDEV979
  Worst-case calculation as a percentage of SML (or restriction), EU Cube: 22.7 percentage of SML (or restriction)
[2]; product SBDEV980
  Worst-case calculation as a percentage of SML (or restriction), EU Cube: 24.0 percentage of SML (or restriction)
[2]; product SBDEV1284
  Worst-case calculation as a percentage of SML (or restriction), EU Cube: 22.7 percentage of SML (or restriction)
[2]; product SBDEV1285
  Worst-case calculation as a percentage of SML (or restriction), EU Cube: 22.7 percentage of SML (or restriction)
[2]; product SBDEV1286
  Worst-case calculation as a percentage of SML (or restriction), EU Cube: 22.7 percentage of SML (or restriction)
[2]; product SBDEV1287
  Worst-case calculation as a percentage of SML (or restriction), EU Cube: 22.7 percentage of SML (or restriction)
[2]; [7]
  Worst Case Calculation of migration in EU Cube model (as a percentage of SML): 24.0 percentage of SML
[2]; [8]
  Worst Case Calculation of migration in EU Cube model (as a percentage of SML): 24 percentage of SML
[2]; [9]
  Worst Case Calculation of migration in EU Cube model (as a percentage of SML): 22.2 percentage of SML
[2]; [10]
  Worst Case Calculation of migration in EU Cube model (as a percentage of SML): 24.0 percentage of SML
[5]
  SML or Restriction (mg substance/kg food): 0.09 mg substance/kg food
[4]; product SBDEV976
  Worst-case calculation as a percentage of SML (or restriction), Application 2: 34.6 percentage of SML (or restriction)
[4]; product SBDEV977
  Worst-case calculation as a percentage of SML (or restriction), Application 2: 34.6 percentage of SML (or restriction)
[4]; product SBDEV979
  Worst-case calculation as a percentage of SML (or restriction), Application 2: 32.7 percentage of SML (or restriction)
[4]; product SBDEV980
  Worst-case calculation as a percentage of SML (or restriction), Application 2: 34.5 percentage of SML (or restriction)
[4]; product SBDEV1284
  Worst-case calculation as a percentage of SML (or restriction), Application 2: 32.68 percentage of SML (or restriction)
[4]; product SBDEV1285
  Worst-case calculation as a percentage of SML (or restriction), Application 2: 32.68 percentage of SML (or restriction)
[4]; product SBDEV1286
  Worst-case calculation as a percentage of SML (or restriction), Application 2: 32.68 percentage of SML (or restriction)
[4]; product SBDEV1287
  Worst-case calculation as a percentage of SML (or restriction), Application 2: 32.68 percentage of SML (or restriction)

## CCO [ethanol]
[1]; Source of SML or restriction: PR (EU Plastics Regulation No. 10/2011)
  SML (or restriction): 60 mg substance/kg food
[1]; source of SML or restriction: PR (EU Plastics Regulation No. 10/2011)
  SML (or restriction): 60 mg substance/kg food
